Source: patent publication US8354416B2 (Glaxo Group Limited, priority 2005, dated 2013)
Where a name gives a salt, the structure may show the parent alone.

tested on: influx of neutrophils to the lung in LPS-challenged rats; test: Rat LPS neutrophilia model; format: in vivo; details: intratracheal, LPS aerosol 100 ug/ml, in at least one of the range of conditions tested, significance p<0.05
Experimental: Rat LPS Neutrophilia Model
The effect of compounds on the influx of neutrophils to the lung in LPS-challenged rats is evaluated as follows. The test compound is suspended in one of the following solutions: 0.5% tween 80/PBS, 0.5% tween 80/saline, 10% EtOH/saline (with pH adjusted to 2.0, or 8.0 with HCl, or unadjusted), Saline (pH 2.0, 6.5 or 8.0, 0.5% Tragacanth, 1% DMSO/20% Encapsin/Saline, or acidified 5% Tragacanth. The suspension process may be aided by the use of a glass homogenizer. For intratracheal administration, the animals are anesthetized with inhaled isoflurane and placed in a supine position, the trachea is intubated with a steel gavage needle (1.5 inch, 22 gauge, small ball) or a Penn-Century Microsprayer Aerosolizer (model IA-1B) and 200 ul of dosing solution is delivered. The animals are visually monitored during the recovery process, which typically occurs within two minutes. It is noted that the test compounds may be alternatively administered via the microsprayer in a dry powder blend with a suitable excipient, such as lactose.
Rats treated with compound or vehicle (15 min-24 hours pretreatment) are exposed to an LPS aerosol (100 ug/ml) for 15 min. Four hours later the rats are euthanized with pentobarbital (100 mg/kg, i.p.) and the airways are lavaged with 5 washes of 5 ml of phosphate buffered saline. The harvested cells are stained (Diffquick) and counted to determine total and differential cell data. […] Inhibition of neutrophil levels relative to no compound controls is calculated based on the differential counts.
The data is obtained as % inhibition using a particular concentration and pretreat time.

SMILES	inhibition of neutrophilia (neutrophil levels in airway lavage relative to no compound controls)
Cc1ccc(C(=O)NC(C)C)cc1-c1nc(N(C)CCCN(C)C)nc2c1ccc(=O)n2-c1c(F)cccc1F [Example 34, 3-{8-(2,6-difluorophenyl)-2-[[3-(dimethylamino)propyl](methyl)amino]-7-oxo-7,8-dihydropyrido[2,3-d]pyrimidin-4-yl}-4-methyl-N-(1-methylethyl)benzamide]	statistically significant inhibition of neutrophilia
Cc1ccc(C(=O)NCc2ccccc2)cc1-c1nc(NCc2ncc[nH]2)nc2c1ccc(=O)n2-c1c(F)cccc1F [Example 77, 3-{8-(2,6-difluorophenyl)-2-[(1H-imidazol-2-ylmethyl)amino]-7-oxo-7,8-dihydropyrido[2,3-d]pyrimidin-4-yl}-4-methyl-N-(phenylmethyl)benzamide]	statistically significant inhibition of neutrophilia
Cc1ccc(C(=O)Nc2nccs2)cc1-c1nc(NCCNC(C)C)nc2c1ccc(=O)n2-c1c(F)cccc1F [Example 103, 3-[8-(2,6-difluorophenyl)-2-({2-[(1-methylethyl)amino]ethyl}amino)-7-oxo-7,8-dihydropyrido[2,3-d]pyrimidin-4-yl]-4-methyl-N-1,3-thiazol-2-ylbenzamide]	statistically significant inhibition of neutrophilia
Cc1ccc(C(=O)NCc2ccccc2)cc1-c1nc(N2CCC(N)CC2)nc2c1ccc(=O)n2-c1c(F)cccc1F [Example 71, 3-[2-(4-amino-1-piperidinyl)-8-(2,6-difluorophenyl)-7-oxo-7,8-dihydropyrido[2,3-d]pyrimidin-4-yl]-4-methyl-N-(phenylmethyl)benzamide]	statistically nonsignificant inhibition of neutrophilia
Cc1ccc(C(=O)Nc2ccc(F)cc2)cc1-c1nc(N(C)CCN(C)C)nc2c1ccc(=O)n2-c1c(F)cccc1F [Example 99, 3-{8-(2,6-difluorophenyl)-2-[[2-(dimethylamino)ethyl](methyl)amino]-7-oxo-7,8-dihydropyrido[2,3-d]pyrimidin-4-yl}-N-(4-fluorophenyl)-4-methylbenzamide]	statistically nonsignificant inhibition of neutrophilia
Cc1ccc(C(=O)Nc2ccc(F)cc2)cc1-c1nc(N2CCC(N)CC2)nc2c1ccc(=O)n2-c1c(F)cccc1F [Example 72, 3-[2-(4-amino-1-piperidinyl)-8-(2,6-difluorophenyl)-7-oxo-7,8-dihydropyrido[2,3-d]pyrimidin-4-yl]-N-(4-fluorophenyl)-4-methylbenzamide]	statistically significant inhibition of neutrophilia
Cc1ccc(C(=O)Nc2nccs2)cc1-c1nc(NCCCNC(C)C)nc2c1ccc(=O)n2-c1c(F)cccc1F [Example 101, 3-[8-(2,6-difluorophenyl)-2-({3-[(1-methylethyl)amino]propyl}amino)-7-oxo-7,8-dihydropyrido[2,3-d]pyrimidin-4-yl]-4-methyl-N-1,3-thiazol-2-ylbenzamide]	statistically significant inhibition of neutrophilia
Cc1ccc(C(=O)NC2CCCC2)cc1-c1nc(NCc2ncc[nH]2)nc2c1ccc(=O)n2-c1c(F)cccc1F [Example 76, N-cyclopentyl-3-{8-(2,6-difluorophenyl)-2-[(1H-imidazol-2-ylmethyl)amino]-7-oxo-7,8-dihydropyrido[2,3-d]pyrimidin-4-yl}-4-methylbenzamide]	statistically nonsignificant inhibition of neutrophilia
Cc1ccc(C(=O)NCC(F)(F)F)cc1-c1nc(N2CCC(N3CCC(C)CC3)CC2)nc2c1ccc(=O)n2-c1c(F)cccc1F [Example 172, 3-[8-(2,6-difluorophenyl)-2-(4-methyl-1,4′-bipiperidin-1′-yl)-7-oxo-7,8-dihydropyrido[2,3-d]pyrimidin-4-yl]-4-methyl-N-(2,2,2-trifluoroethyl)benzamide]	inactive
Cc1ccc(C(=O)NC(C)C)cc1-c1nc(N2CCC(N)CC2)nc2c1ccc(=O)n2-c1c(F)cccc1F [Example 68, 3-[2-(4-amino-1-piperidinyl)-8-(2,6-difluorophenyl)-7-oxo-7,8-dihydropyrido[2,3-d]pyrimidin-4-yl]-4-methyl-N-(1-methylethyl)benzamide]	statistically significant inhibition of neutrophilia
CCCNC(=O)c1ccc(C)c(-c2nc(N3CCC(N4CCC(C)CC4)CC3)nc3c2ccc(=O)n3-c2c(F)cccc2F)c1 [Example 166, 3-[8-(2,6-difluorophenyl)-2-(4-methyl-1,4′-bipiperidin-1′-yl)-7-oxo-7,8-dihydropyrido[2,3-d]pyrimidin-4-yl]-4-methyl-N-propylbenzamide]	statistically significant inhibition of neutrophilia
CCN(CC)CCCNc1nc(-c2cc(C(=O)NCC3CC3)ccc2C)c2ccc(=O)n(-c3c(F)cccc3F)c2n1 [Example 138, N-(cyclopropylmethyl)-3-[2-{[3-(diethylamino)propyl]amino}-8-(2,6-difluorophenyl)-7-oxo-7,8-dihydropyrido[2,3-d]pyrimidin-4-yl]-4-methylbenzamide trifluoroacetate]	statistically nonsignificant inhibition of neutrophilia
CCCNC(=O)c1ccc(C)c(-c2nc(N3CCC(N)CC3)nc3c2ccc(=O)n3-c2c(F)cccc2F)c1 [Example 69, 3-[2-(4-amino-1-piperidinyl)-8-(2,6-difluorophenyl)-7-oxo-7,8-dihydropyrido[2,3-d]pyrimidin-4-yl]-4-methyl-N-propylbenzamide]	statistically significant inhibition of neutrophilia
Cc1ccc(C(=O)NCC2CC2)cc1-c1nc(N2CCC(N)CC2)nc2c1ccc(=O)n2-c1c(F)cccc1F [Example 27, 3-[2-(4-amino-1-piperidinyl)-8-(2,6-difluorophenyl)-7-oxo-7,8-dihydropyrido[2,3-d]pyrimidin-4-yl]-N-(cyclopropylmethyl)-4-methylbenzamide]	statistically significant inhibition of neutrophilia
CCCCNC(=O)c1ccc(C)c(-c2nc(N3CCC(N4CCC(C)CC4)CC3)nc3c2ccc(=O)n3-c2c(F)cccc2F)c1 [Example 167, N-butyl-3-[8-(2,6-difluorophenyl)-2-(4-methyl-1,4′-bipiperidin-1′-yl)-7-oxo-7,8-dihydropyrido[2,3-d]pyrimidin-4-yl]-4-methylbenzamide]	statistically significant inhibition of neutrophilia
CCN(CC)CCCNc1nc(-c2cc(C(=O)NCC3CCCC3)ccc2C)c2ccc(=O)n(-c3c(F)cccc3F)c2n1 [Example 132, N-(cyclopentylmethyl)-3-[2-{[3-(diethylamino)propyl]amino}-8-(2,6-difluorophenyl)-7-oxo-7,8-dihydropyrido[2,3-d]pyrimidin-4-yl]-4-methylbenzamidetrifluoroacetate]	statistically nonsignificant inhibition of neutrophilia
CNCCNc1nc(-c2cc(C(=O)NC(C)C)ccc2C)c2ccc(=O)n(-c3c(F)cccc3F)c2n1 [Example 57, 3-(8-(2,6-difluorophenyl)-2-{[2-(methylamino)ethyl]amino}-7-oxo-7,8-dihydropyrido[2,3-d]pyrimidin-4-yl)-4-methyl-N-(1-methylethyl)benzamide]	statistically significant inhibition of neutrophilia
Cc1ccc(NC(=O)c2ccsc2)cc1-c1nc(N2CCC(N)CC2)nc2c1ccc(=O)n2-c1c(F)cccc1F [Example 32, N-{3-[2-(4-amino-1-piperidinyl)-8-(2,6-difluorophenyl)-7-oxo-7,8-dihydropyrido[2,3-d]pyrimidin-4-yl]-4-methylphenyl}-3-thiophenecarboxamide]	statistically nonsignificant inhibition of neutrophilia
CCCNC(=O)c1ccc(C)c(-c2nc(N(C)CCCN(C)C)nc3c2ccc(=O)n3-c2c(F)cccc2F)c1 [Example 104, 3-{8-(2,6-difluorophenyl)-2-[[3-(dimethylamino)propyl](methyl)amino]-7-oxo-7,8-dihydropyrido[2,3-d]pyrimidin-4-yl}-4-methyl-N-propylbenzamide]	statistically significant inhibition of neutrophilia
Cc1ccc(NC(=O)c2ccsc2)cc1-c1nc(NC2CC(C)(C)NC(C)(C)C2)nc2c1ccc(=O)n2-c1c(F)cccc1F [31(e), N-(3-{8-(2,6-difluorophenyl)-7-oxo-2-[(2,2,6,6-tetramethyl-4-piperidinyl)amino]-7,8-dihydropyrido[2,3-d]pyrimidin-4-yl}-4-methylphenyl)-3-thiophenecarboxamide]	statistically significant inhibition of neutrophilia
